{"source": "patent US5116815A", "about": "“PF 1022 substance, method of treating helminthic parasitic infection and anthelmintic composition” (Meiji Seika Kaisha Ltd., priority 1989, dated 1992)", "key": {"[1]": {"tested_on": "fourth stomachworms (Ostertaqia circumcincta)", "assay": "Sheep digestive tract nematodes, worms remaining in the fourth stomach", "type": "in vivo", "details": "for number of worms remaining in the fourth stomach at autopsy: autopsy 7 days after administration, mean of 6 animals", "method": "(§1) The PF 1022 substance was evaluated for its anthelmintic effect in sheep mixedly infected with fourth stomachworms (Ostertaqia circumcincta) and small intestinal hairworms (Trichostrongylus colubriformis) by administering it orally to 24 sheep artificially infected with said two worm species.\n(§2) The infected sheep were divided into 4 groups of 6 animals, which were respectively given 1 mg/kg, 5 mg/kg, 10 mg/kg and 0 mg/kg (control) of the substance suspended in 0.5% CMC, via a stomach catheter. The observation items were the number of parasite eggs per gram of feces (EPG) before administration, the EPG 7 days after administration, and the number of worms remaining in the fourth stomach and that of worms remaining in the intestinal tract as found upon autopsy 7 days after administration.\n(§3) Each numerical value given is the mean of 6 animals."}, "[2]": {"assay": "Ames test", "type": "cell-based"}, "[3]": {"assay": "Solubility", "type": "physicochemical", "excerpt": "(11) Solubility: Soluble in methanol, ethyl acetate, acetone, chloroform and dimethyl sulfoxide; insoluble in water;"}, "[4]": {"tested_on": "mammalian cell", "assay": "Mammalian cell chromosomal aberration test", "type": "cell-based"}, "[5]": {"tested_on": "roundworms (Parascaris equorum)", "assay": "Anthelmintic effect on equine roundworms", "type": "in vivo", "details": "horse, oral 5 mg/kg Day 0 and 2.5 mg/kg Day 1", "method": "The PF 1022 substance was evaluated for its anthelmintic effect in a horse found by scatoscopy to be infected with roundworms (Parascaris equorum) and strongyles (Strongylus spp.) by orally administering the substance thereto.\nThe PF 1022 substance was suspended in water and administered with a stomach catheter at 5 mg/kg on the first day and at 2.5 mg/kg on the second day. For both the roundworms and strongyles, parasite eggs in each gram of feces (EPG) as well as parasites eliminated were counted daily for one week following the first administration. For strongyles, the number of worms in 100 g of feces was determined."}, "[6]": {"tested_on": "large intestinal roundworms (Ascaridia galli)", "assay": "Chicken large intestinal roundworm elimination test, single oral dose", "type": "in vivo", "details": "chickens; for Mean % Elimination / % Elimination: 7 days; for Mean % Elimination / Mean % body weight gain: group of 3; for % Elimination / % Body weight gain: individual chicken; for Mean % body weight gain / % Body weight gain: after 7 days", "method": "Chickens verified to be artificially infected with large intestinal roundworms (Ascaridia galli) by scatoscopy were used in groups of three animals. The PF 1022 substance was used at five levels of dose from 0.2 mg/kg to 3 mg/kg. A total of 18 chickens were used in 6 groups, inclusive of an untreated control group.\nFor administration, an amount of the PF 1022 substance exactly equal to the dose calculated on the basis of the body weight of each chicken was weighed and suspended in water containing carboxymethylcellulose (CMC), and the suspension was administered orally as a single dose using a stomach tube. After administration, the worms eliminated were counted daily for each chicken and, after 7 days, each chicken was sacrificed and autopsied and the worms remaining in the intestinal tract were counted. The percent elimination was calculated as follows: [formula] Furthermore, the body weight just prior to administration and the body weight after 7 days were measured for each chicken and the percent body weight gain was calculated as follows: [formula]"}, "[7]": {"tested_on": "small intestinal hairworms (Trichostrongylus colubriformis)", "assay": "Sheep digestive tract nematodes, worms remaining in the intestinal tract", "type": "in vivo", "details": "for Number of worms remaining in At autopsy: autopsy 7 days after administration, mean of 6 animals", "method": "as §1, §2, §3"}, "[8]": {"tested_on": "fourth stomachworms (Ostertaqia circumcincta) and small intestinal hairworms (Trichostrongylus colubriformis)", "assay": "Sheep digestive tract nematodes, mixed infection, EPG", "type": "in vivo", "details": "mean of 6 animals; for EPG At autopsy: 7 days after administration; for EPG Before administration: baseline", "method": "as §1, §2, §3"}, "[9]": {"tested_on": "whipworms (Trichuris vulpisl)", "assay": "Anthelmintic effect on canine whipworms", "type": "in vivo", "details": "dog; for whipworms eliminated / whipworms remaining: 7 days", "method": "The PF 1022 substance was evaluated for its anthelmintic effect in dogs by orally administering it to dogs found to be infected with roundworms (Toxocara canis), hookworms (Ancylostoma caninum) and whipworms (Trichuris vulpisl), respectively, by scatoscopy.\nThus, the elimination was 100% in both cases. On the other hand, one of two dogs infected with the above-mentioned whipworms was given orally one single dose of 5 mg/kg and the other 10 mg/kg, and the worms eliminated and those remaining uneliminated during 7 days following administration were counted. […] At 10 mg/kg, 22 whipworms were eliminated while none were found remaining uneliminated. Thus, the elimination was 100%."}, "[10]": {"tested_on": "feline hookworms (Ancylostoma tubaeforme)", "assay": "Anthelmintic activity against cat hookworms", "type": "in vivo", "details": "cats", "method": "The PF 1022 substance was evaluated for its anthelmintic effect on feline hookworms (Ancylostoma tubaeforme) by orally administering the substance once to 12 cats found to be infected with said worms by scatoscopy.\nThe infected cats were divided into three groups of 4 animals and respectively given 0.2 mg/kg, 1 mg/kg and 5 mg/kg of the substance admixed as such with a small portion of the ordinary feed. The observation items were the number of worms eliminated during 7 days following administration and the number of remaining worms found upon autopsy 7 days after administration."}, "[11]": {"details": "single oral dose 0.2 mg/kg, 0.2 mg/kg"}, "[12]": {"details": "single oral dose 0.5 mg/kg, 0.5 mg/kg"}, "[13]": {"details": "single oral dose 1 mg/kg, 1 mg/kg"}, "[14]": {"details": "single oral dose 2 mg/kg, 2 mg/kg"}, "[15]": {"details": "single oral dose 3 mg/kg, 3 mg/kg"}}, "note": "Values joined by “and” are separate entries in the source; they are usually repeats but may differ in a detail not shown here. Equal values may be shown once.", "data": [{"smiles": "CC(C)C[C@H]1C(=O)O[C@H](Cc2ccccc2)C(=O)N(C)[C@@H](CC(C)C)C(=O)O[C@H](C)C(=O)N(C)[C@@H](CC(C)C)C(=O)O[C@H](Cc2ccccc2)C(=O)N(C)[C@@H](CC(C)C)C(=O)O[C@H](C)C(=O)N1C", "note": "[PF 1022 substance]", "values": [{"measurement": "number of worms remaining in the fourth stomach at autopsy", "setting": "[1]; oral 1 mg/kg", "value": 4967}, {"measurement": "number of worms remaining in the fourth stomach at autopsy", "setting": "[1]; oral 5 mg/kg", "value": 4717}, {"measurement": "number of worms remaining in the fourth stomach relative to the control infected group", "setting": "[1]; oral 10 mg/kg", "value": "about half"}, {"measurement": "number of worms remaining in the fourth stomach at autopsy", "setting": "[1]; oral 10 mg/kg", "value": 2463}, {"measurement": "Ames test result", "setting": "[2]", "value": "negative"}, {"measurement": "Solubility", "setting": "[3]; methanol, ethyl acetate, acetone, chloroform and dimethyl sulfoxide", "value": "Soluble"}, {"measurement": "Solubility", "setting": "[3]; water", "value": "insoluble"}, {"measurement": "mammalian cell chromosomal aberration test result", "setting": "[4]", "value": "negative"}, {"measurement": "EPG", "setting": "[5]; Day 0", "value": 77}, {"measurement": "Number of worms eliminated", "setting": "[5]; Day 0", "value": 0}, {"measurement": "EPG", "setting": "[5]; Day 1", "value": 52}, {"measurement": "Number of worms eliminated", "setting": "[5]; Day 1", "value": 22}, {"measurement": "EPG", "setting": "[5]; Day 2", "value": 0.4}, {"measurement": "Number of worms eliminated", "setting": "[5]; Day 2", "value": 17}, {"measurement": "EPG", "setting": "[5]; Day 3", "value": 0.2}, {"measurement": "Number of worms eliminated", "setting": "[5]; Day 3", "value": 0}, {"measurement": "EPG", "setting": "[5]; Day 4", "value": 0}, {"measurement": "Number of worms eliminated", "setting": "[5]; Day 4", "value": 0}, {"measurement": "EPG", "setting": "[5]; Day 5", "value": 0}, {"measurement": "Number of worms eliminated", "setting": "[5]; Day 5", "value": 0}, {"measurement": "EPG", "setting": "[5]; Day 6", "value": 0.2}, {"measurement": "Number of worms eliminated", "setting": "[5]; Day 6", "value": 0}, {"measurement": "EPG", "setting": "[5]; Day 7", "value": 0}, {"measurement": "Number of worms eliminated", "setting": "[5]; Day 7", "value": 0}, {"measurement": "Mean % Elimination", "setting": "[6]; single oral dose 0.2 mg/kg", "value": 18.5, "unit": "%"}, {"measurement": "% Elimination", "setting": "[6]; [11]", "value": "12.9% and 16.0% and 26.7%"}, {"measurement": "Mean % body weight gain", "setting": "[6]; single oral dose 0.2 mg/kg", "value": 9.6, "unit": "%"}, {"measurement": "% Body weight gain", "setting": "[6]; [11]", "value": "6.3% and 8.4% and 14.0%"}, {"measurement": "Mean % Elimination", "setting": "[6]; single oral dose 0.5 mg/kg", "value": 45.4, "unit": "%"}, {"measurement": "% Elimination", "setting": "[6]; [12]", "value": "16.4% and 52.1% and 67.7%"}, {"measurement": "Mean % body weight gain", "setting": "[6]; single oral dose 0.5 mg/kg", "value": 9.2, "unit": "%"}, {"measurement": "% Body weight gain", "setting": "[6]; [12]", "value": "8.2% and 11.5% and 7.8%"}, {"measurement": "Mean % Elimination", "setting": "[6]; single oral dose 1 mg/kg", "value": 74.1, "unit": "%"}, {"measurement": "% Elimination", "setting": "[6]; [13]", "value": "60.0% and 76.1% and 86.2%"}, {"measurement": "Mean % body weight gain", "setting": "[6]; single oral dose 1 mg/kg", "value": 8.7, "unit": "%"}, {"measurement": "% Body weight gain", "setting": "[6]; [13]", "value": "8.2% and 6.6% and 11.2%"}, {"measurement": "Mean % Elimination", "setting": "[6]; single oral dose 2 mg/kg", "value": 84.6, "unit": "%"}, {"measurement": "% Elimination", "setting": "[6]; [14]", "value": "82.1% and 93.5% and 78.3%"}, {"measurement": "Mean % body weight gain", "setting": "[6]; single oral dose 2 mg/kg", "value": 8.9, "unit": "%"}, {"measurement": "% Body weight gain", "setting": "[6]; [14]", "value": "7.8% and 10.5% and 8.4%"}, {"measurement": "% Elimination", "setting": "[6]; [15]", "value": "100% and 95.5% and 98.3%"}, {"measurement": "% Body weight gain", "setting": "[6]; [15]", "value": "11.8% and 9.7% and 8.3%"}, {"measurement": "Number of worms remaining in At autopsy", "setting": "[7]; oral 1 mg/kg", "value": 8750}, {"measurement": "Number of worms remaining in At autopsy", "setting": "[7]; oral 5 mg/kg", "value": 8317}, {"measurement": "number of worms remaining in the intestinal tract relative to the control infected group", "setting": "[7]; oral 10 mg/kg", "value": "about half"}, {"measurement": "Number of worms remaining in At autopsy", "setting": "[7]; oral 10 mg/kg", "value": 5333}, {"measurement": "EPG At autopsy", "setting": "[8]; oral 1 mg/kg", "value": 3114}, {"measurement": "EPG Before administration", "setting": "[8]; oral 1 mg/kg", "value": 2447}, {"measurement": "EPG At autopsy", "setting": "[8]; oral 5 mg/kg", "value": 2462}, {"measurement": "EPG Before administration", "setting": "[8]; oral 5 mg/kg", "value": 2458}, {"measurement": "EPG At autopsy", "setting": "[8]; oral 10 mg/kg", "value": 1970}, {"measurement": "EPG Before administration", "setting": "[8]; oral 10 mg/kg", "value": 2332}, {"measurement": "percent elimination", "setting": "[9]; single oral dose 5 mg/kg", "value": 39.4, "unit": "%"}, {"measurement": "whipworms eliminated", "setting": "[9]; single oral dose 5 mg/kg", "value": 327}, {"measurement": "whipworms remaining", "setting": "[9]; single oral dose 5 mg/kg", "value": 504}, {"measurement": "elimination", "setting": "[9]; single oral dose 10 mg/kg", "value": 100, "unit": "%"}, {"measurement": "whipworms eliminated", "setting": "[9]; single oral dose 10 mg/kg", "value": 22}, {"measurement": "whipworms remaining", "setting": "[9]; single oral dose 10 mg/kg", "value": "none"}, {"measurement": "% Elimination", "setting": "[10]; [13]", "value": "62.5% and 100% and 87.5% and 98.2%"}, {"measurement": "% Elimination", "setting": "[10]; single oral dose 5 mg/kg", "value": 100, "unit": "%"}, {"measurement": "Number of remaining worms", "setting": "[10]; single oral dose 5 mg/kg, autopsy 7 days", "value": 0}]}]}
